Test results taken from patent publication US8193328B2, “Identification of modulators of serine protease inhibitor Kazal and their use as anti-cancer and anti-viral agents” (Philadelphia Health & Education Corporation, priority 2005, dated 2012).
Where a SMILES comes first, the peptide text is derived from it. The star is where a group is joined. Cbz = O=C(OCc1ccccc1)*; CH2F = FC*

Key:
caspase 3 = assay: Caspase 3 activity in S2-3 and Huh7T cells (Biovision kit); type: cell-based, human; settings: 40 hours treatment
Protocol: FIG. 5B. The activation of caspase 3 (CDCA) in S2-3 cells treated with etoposide but not BFA/CHX/Z-VAD. The S2-3 cell and its parental cell Huh7T were either treated with SPDCA inducer BFA/CHX/ZVAD or CDCA inducer etoposide. The caspase activity was determined after […] treatment by Caspase 3 detection kit (Biovision, Mountain View, Calif.).
The same level of apoptosis induced by etoposide in S2-3 cell and Huh7T cell was confirmed by the examination of caspase 3 activity in these cells. After 40 hours treatment, all cells were lysed in […] lysis buffer. […] lysate of each sample was analyzed for caspase 3 activity test using caspase 3 detected kits [Biovision, Mountain View, Calif.]. […] Additionally, the activity of caspase3 was not increased in the cells, in which SPDCA was induced by BFA/CHX, even by double doses [FIG. 5B, B/C/ZX2].

HepG2.215 cells = assay: CDCA induced by etoposide in HepG2.215 cells; type: cell-based, human; settings: data not shown
Protocol: (§1) To study the influence of HCV replication upon SPDCA, G54 and Huh7T cells (its parent cell) were seeded in a 60 mm dish. SPDCA was induced by BFA/CHX/Z-VAD. […] The insensitivity of HCV replicon cell to SPDCA was also seen subsequently by annexin staining. Compared to the parental cells, much fewer HCV expressing cells were stained by annexin after being treated with SPDCA inducers BFA/CHX/Z-VAD [FIG. 8C, Annexin]. DNA fragmentation study also support that the HCV expressing cells were more resistant to apoptosis. 70 hours treatment of BFA/CHX/Z-VAD obviously triggered the DNA fragmentation in Huh7T cell, but not in G54 cells [FIG. 8D]. […] In contrast, both HepG2.215 and G54 are sensitive to CDCA induced by etoposide [data not shown].

Huh7T cells = assay: Etoposide induced CDCA in Huh7T cells, annexin stain; type: cell-based, human; settings: 400 μM etoposide, 40 hours, data not shown
Protocol: (§2) FIG. 5A. S2-3 and Huh7T cells were treated with CDCA inducer 400 μM etoposide. After 40 hours, the cells apoptosis was examined in microscope and stained with annexin.
(§3) 10^5 S2-3 and Huh7T cells were seeded in 60 mm dishes. When the cell reached 90% confluent, CDCA inducer etoposide was added. After 28-40 hours, the cell shrinkage, blebbing and detachment from culture was found in both cell lines. At the same time, the strong fluorescence stain by annexin was also observed in both cell lines [FIG. 5A]. The amount of apoptotic cells in two cell lines was very similar. Around 62% S2-3 cell was stained by annexin, while 58% of Huh7T cell was stained after 40 hours treatment [data not shown].

G54 cells = assay: CDCA induced by etoposide in G54 cells; type: cell-based, human; settings: data not shown
Protocol: as §1

S2-3 cells = assay: Etoposide induced CDCA in S2-3 cells, annexin stain; type: cell-based, human; settings: 400 μM etoposide, 40 hours, data not shown
Protocol: as §2, §3

HCV replication = assay: Northern blot of HCV RNA in HCV replicon cells after antiviral treatment; type: cell-based, Hepatitis C virus; settings: 10^5 IU/ml overnight
Protocol: (§4) FIG. 7A-7B. SPIK in the HCV expressing cells. SPIK RNA was detected in the cells with/without HCV replicon as before. HCV RNA was defined by the hybridization of membrane with radio-labeled probe specified HCV.
(§5) FIG. 7B—HCV replicon cells were incubated with HCV polymerase inhibitor 888 (2 mM) 2 days (Lines 3 & 4 duplicate) and 10^5 IU/ml interferon-a overnight (Lines 5 & 6 duplicate) or left untreated (Line 1 & 2 duplicate). The suppressions of HCV RNA and SPIK RNA then were analyzed by Northern blot as before. The smear detected by HCV probe under the band of HCV RNA probably was the replication form of HCV.
(§6) Over-expression of SPIK RNA in G54 cells can be abrogated by inhibition of HCV replication. Treatment of HCV replicon cells with either 2 mM of the HCV polymerase inhibitor 888 for two days or 10^5 IU/ml interferon-a overnight has reduced HCV replication by approximately 90% [FIG. 7B, lane 3-6]. This is consistent with previous reports of these antiviral agents (55, 56).

SPIK RNA = assay: Northern blot of SPIK RNA in G54 HCV replicon cells after antiviral treatment; type: cell-based, human; settings: 10^5 IU/ml overnight
Protocol: as §4, §5, §6

Compound | caspase 3 activity (caspase 3) | sensitivity to CDCA (HepG2.215 cells) | cells stained by annexin (Huh7T cells) [%] | sensitivity to CDCA (G54 cells) | cells stained by annexin (S2-3 cells) | reduction of HCV replication (HCV replication) | SPIK level (SPIK RNA)
CC(NC(=O)C(NC(=O)OCc1ccccc1)C(C)C)C(=O)NC(CC(=O)O)C(=O)CF (stereo not drawn) [Z-VAD] (Cbz-Val-Ala-Asp-CH2F; configuration not given here) | kept unchanged |  |  |  |  |  | 
COc1cc([C@@H]2c3cc4c(cc3[C@@H](O[C@@H]3O[C@@H]5CO[C@@H](C)O[C@H]5[C@H](O)[C@H]3O)[C@H]3COC(=O)[C@H]23)OCO4)cc(OC)c1O [etoposide] | at the same level in both cells | sensitive | 58 | sensitive | Around 62% |  | 
interferon-a |  |  |  |  |  | approximately 90% | correspondingly decreased with HCV RNA
